Assay results: publication PMC3685428 (ACS medicinal chemistry letters, 2012)

Experiments:
P. falciparum Dd2 strain = assay: Proliferation of erythrocyte-stage P. falciparum, Dd2 strain; type: cell-based; settings: Plasmodium falciparum; for IC50: DD2, Erythrocyte, read-out: IC50 against P. falciparum proliferation, Dd2 strain
P. falciparum 3D7 strain = assay: Proliferation of erythrocyte-stage P. falciparum, 3D7 strain; type: cell-based; settings: Plasmodium falciparum; for IC50: 3D7, Erythrocyte, read-out: IC50 against P. falciparum proliferation, 3D7 strain
[1] = biological target: T1, recombinant P. falciparum DXR (PfDXR) (Plasmodium falciparum, UniProt O96693); assay: Enzyme inhibition of recombinant P. falciparum DXR; type: biochemical; settings: relative to compound 7
T1 sequence (O96693 73-488): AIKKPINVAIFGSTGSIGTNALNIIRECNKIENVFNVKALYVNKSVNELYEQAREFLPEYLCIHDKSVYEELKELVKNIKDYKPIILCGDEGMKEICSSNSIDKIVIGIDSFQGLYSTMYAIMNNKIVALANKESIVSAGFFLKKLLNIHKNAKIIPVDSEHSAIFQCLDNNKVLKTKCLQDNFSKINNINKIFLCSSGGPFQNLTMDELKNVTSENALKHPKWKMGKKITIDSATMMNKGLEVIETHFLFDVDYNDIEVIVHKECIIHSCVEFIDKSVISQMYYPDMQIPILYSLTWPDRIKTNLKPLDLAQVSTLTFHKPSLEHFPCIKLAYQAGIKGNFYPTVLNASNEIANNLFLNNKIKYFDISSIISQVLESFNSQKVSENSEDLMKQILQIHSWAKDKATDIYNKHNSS

[2] = background statement, cited from earlier work
P. falciparum malaria = settings: clinical trials, in combination with clindamycin ref 7, 8; cited from earlier work

Row | SMILES | IC50 (P. falciparum Dd2 strain) [nM] | IC50 (P. falciparum 3D7 strain) [nM] | Fold more inhibitory potency than compound 7 against PfDXR [1] | EC50 (P. falciparum 3D7 strain; 3D7, read-out: EC50 against P. falciparum 3D7) [nM] | EC50 (P. falciparum Dd2 strain; DD2, read-out: EC50 against P. falciparum Dd2) [nM] | Oral availability [2] | Half life in plasma ([2]; plasma) | Clinical efficacy against P. falciparum malaria (P. falciparum malaria)
1 | O=CN(O)CCC(c1ccncc1)P(=O)(O)O (centres unmarked) [4p] | 170 | 180 |  |  |  |  |  | 
2 | CC(=O)N(O)CCC(c1ccccc1)P(=O)(O)O (centres unmarked) [compound 7] | 1700 | 3500 |  |  |  |  |  | 
3 | O=CN(O)CCC(c1cccnc1)P(=O)(O)O (centres unmarked) [4m] | 180 | 340 |  |  |  |  |  | 
4 | CCN(CC)CCCC(C)Nc1ccnc2cc(Cl)ccc12 (centres unmarked) [CQ, chloroquine, reference compound] | 120 | 21 |  |  |  |  |  | 
5 | CC(=O)N(O)CCC(c1ccncc1)P(=O)(O)O (centres unmarked) [5p] | 460 | 630 | ~ 6 × | 310 |  |  |  | 
6 | CC(=O)N(O)CCC(c1cccnc1)P(=O)(O)O (centres unmarked) [5m] | 310 | 440 |  |  | 630 |  |  | 
7 | O=CN(O)CCCP(=O)(O)O [compound 1, Fosmidomycin] | 440 | 1170 |  |  |  | poor | ~ 1 h | effective against P. falciparum malaria
